Data as given in article PMC12650265 (The Journal of Experimental Medicine, 2025).
Entries after “also recorded” stand apart in the source; their conditions may differ.

Key:
[1] = test system: T1, folded MR1 in C1R.MR1 cells; experiment: intracellular total folded MR1 by flow cytometry (8F2.F9); format: cell-based, human; conditions: 16 h, 100 µM
T1 construct: expressed in transfected cells; host or cells: C1R B lymphoblastoid cells transduced with MR1*01

[2] = test system: T2, human MR1–β2-microglobulin (β2m) complex; experiment: refolding of recombinant MR1-β2m with ligand; format: binding; conditions: ligand added to refolding buffer; gel filtration and SDS-PAGE
T2 construct: plasmids encoding for the extracellular domains of MR1, β2m, and the AF-7 TCRα and TCRβ chains; made in house

hMR1 protein = molecular target: T3, hMR1 protein (Homo sapiens, UniProt Q95460); experiment: fluorescence polarization–based cell-free assay, competition with JYM20 for MR1 binding; conditions: 50% inhibition of 10 nM JYM20 binding to 100 nM empty hMR1, 37°C; three independent experiments in triplicate
T3 construct: plasmids encoding for the extracellular domains of MR1, β2m, and the AF-7 TCRα and TCRβ chains; made in house; host or cells: Escherichia coli BL21(DE3)

[3] = test system: T4, MR1^K43A on C1R.MR1^K43A cells; experiment: cell surface MR1^K43A by flow cytometry; format: cell-based, human
T4 construct: expressed in transfected cells; host or cells: C1R cells overexpressing MR1^K43A
Excerpt: (§1) We then tested the effect of the RF catabolites on the expression of two mutant versions of MR1 termed MR1^R9H ([Howson et al., 2020]) and MR1^K43A ([Reantragoon et al., 2013]). First, we tested the MR1^R9H mutant ([Howson et al., 2020]), which represents a rare, natural human polymorph. […] We used C1R.MR1^R9H cells, which are produced by stable transduction of wild-type C1R cells, which express low levels of wild-type MR1, with a vector expressing the MR1^R9H mutant ([Howson et al., 2020]). […] When C1R. […] Next, we sought to understand how the previously characterized K43A mutation affects ligand binding.
The level of MR1 expressed on the cell surface was measured after the exposure to the investigated ligands as previously described ([Awad et al., 2020a]; [Wang et al., 2022a]). C1R Ag-presenting B lymphocytes overexpressing MR1*01 (C1R.MR1), MR1^K43A mutant (C1R.MR1^K43A), MR1^R9H mutant (C1R.MR1^R9H), or HLA-A*02:01 (C1R-A2), in addition to the monocytic THP-1-MR1 cells, were used in this study. 2 × 10^5 cells were incubated with RF catabolites for 3 or 16 h at 37°C and 5% CO2 in 200 μl folate-free RPMI 1640 medium from Gibco (Cat. No. 11875-093) fortified with 10% fetal bovine serum, sodium pyruvate (1 mmol/L), HEPES buffer (15 mmol/L), pH 7.2–7.5, 2% penicillin (100 U/ml), streptomycin ([…]), GlutaMAX (2 mmol/L), nonessential amino acids (0.1 mmol/L) (all from Thermo Fisher Scientific, Life Technologies), and 2-mercaptoethanol ([…], Sigma-Aldrich) (RF-10). After incubation, the cells were first stained with Zombie Aqua Fixable Viability Kit from BioLegend (Cat. No. 423102) and then incubated with biotinylated 8F2F9 αMR1 antibody for 30 min on ice. The unbound antibody was then washed off with 2% fetal bovine serum/PBS (called 2% FACS hereafter) buffer. The cells were finally incubated with PE-conjugated streptavidin (30 μg/ml; BioLegend) and then washed with 2% FACS buffer. The PE fluorescence intensity reflects the surface MR1 level. The data were acquired with LSRFortessa X-20 (BD Biosciences) and Diva software (BD Biosciences) and analyzed using FlowJo software (BD Biosciences).

soluble WT MR1 = experiment: fluorescence-based thermal shift (thermostability) assay of MR1–ligand complexes; format: binding, human; conditions: MR1 refolded with the ligand; SYPRO Orange, 28 to 95°C; three independent experiments; listed as MR1-Lumiflavin
[4] = test system: T5, surface MR1*01 on THP-1.MR1 cells; experiment: quantification of cell surface MR1 by flow cytometry, THP-1.MR1 cells; format: cell-based, human; conditions: 3 h
T5 construct: expressed in transfected cells; host or cells: THP-1 monocytic cells transduced with MR1
Procedure: Next, we investigated whether these RF catabolites can impact MR1 cell surface expression in both MR1-transduced B cell lymphoblastoid (C1R.MR1) and monocytic (THP-1.MR1) cell lines (Fig. 2). Here, the cells were incubated with 1–200 µM of RF or the RF catabolites, and the cell surface levels of MR1 were quantified by flow cytometry ([Awad et al., 2020a]; [Keller et al., 2017]). […] The MR1 downregulation seen in C1R.MR1 cells was specific to MR1 as the level of HLA-A*02:01 was not affected after incubating C1R-A2 with the ligands (Fig. S1 E). […] This MR1 downregulation varied between cell types, with a higher extent observed in THP-1.MR1 than C1R.MR1, and was seen after staining with two different conformational anti-MR1 antibodies (clones 8F2F9 and 26.5; Fig. 2 G). Beyond APCs overexpressing MR1, we also measured MR1 on the surface of cells expressing wild-type levels of MR1.
(§2) The level of MR1 expressed on the cell surface was measured after the exposure to the investigated ligands as previously described ([Awad et al., 2020a]; [Wang et al., 2022a]). […] The PE fluorescence intensity reflects the surface MR1 level. The data were acquired with LSRFortessa X-20 (BD Biosciences) and Diva software (BD Biosciences) and analyzed using FlowJo software (BD Biosciences).

[5] = test system: SKW-3 cells expressing MAIT TCR AF-7; experiment: SKW-3 reporter T cell activation (CD69), coculture with C1R.MR1; format: cell-based; conditions: for reactivity to 5-OP-RU (CD69): SKW-3-AF-7, in the presence of 1 nM 5-OP-RU; for reactivity to RL-7-Me (CD69): SKW-3-AF-7, in the presence of 100 nM RL-7-Me
Procedure: (§3) Given the intracellular MR1 retention induced by the RF catabolites, we anticipated that these ligands could influence the activity of MR1-reactive T cells. First, we utilized a system whereby reporter SKW-3 T cell lines were cocultured with C1R.MR1 APCs and activation was determined by CD69 expression. […] In contrast, SKW-3-MBV28 cells were inhibited by alloxazine but activated by lumichrome (Fig. S3, D–F). Two MR1-restricted TRAV1-2^−ve SKW-3 T cell lines were also tested.
(§4) C1R.MR1 cells (1 × 10^5) were initially stained with CTV (Thermo Fisher Scientific) for 15 min and then incubated with RF catabolites for 20 h. […] Cells were subsequently stained with PE-Cy7-conjugated anti-CD69 (1:100; BD Biosciences) and PE-labeled anti-MR1 (1:100, clone 26.5; BD Biosciences), before analysis on a LSRFortessa (BD Biosciences) flow cytometer. Activation of the SKW-3 cells was reflected by the cell surface CD69 expression.

[6] = test system: T6, MR1 on PBMC-derived B lymphocytes; experiment: MR1 surface expression on primary B cells; format: cell-based; conditions: primary human B cells, 16 h, highest doses, with or without 5-OP-RU
T6 construct: we also measured MR1 on the surface of cells expressing wild-type levels of MR1; endogenous in cells; host or cells: PBMC-derived B lymphocytes from healthy human donors

[7] = test system: MAIT and TRAV1-2^−ve cells from PBMCs; experiment: TCR-independent or bead stimulation of PBMCs (PMA and ionomycin, αCD3/αCD28 beads); format: cell-based, human; conditions: PBMCs preincubated 16 h, then PMA and ionomycin; MAIT or non-MAIT TRAV1-2^−ve cells
[8] = test system: SKW-3 cells expressing MAIT TCR MBV28; experiment: SKW-3 reporter T cell activation (CD69), coculture with C1R.MR1; format: cell-based; conditions: SKW-3 MBV28 cocultured with C1R.MR1, no agonist
Procedure: as §3, §4

MR1 on C1R.MR1 cells = test system: T7, MR1 on C1R.MR1 cells; experiment: competition with Ac-6-FP or 5-OP-RU for MR1 upregulation, C1R.MR1 cells; format: cell-based, human; conditions: 1–200 µM overnight
T7 construct: expressed in transfected cells; host or cells: C1R B lymphoblastoid cells transduced with MR1*01

MR1 in C1R.MR1 cells = test system: T8, MR1 in C1R.MR1 cells; experiment: Endo H treatment and western blot of intracellular MR1; format: cell-based, human; conditions: 16 h, Ac-6-FP 10 μM, RF and catabolites 100 μM
T8 construct: expressed in transfected cells; host or cells: C1R B lymphoblastoid cells transduced with MR1*01
Procedure: The downregulation of MR1 on the cell surface by the RF catabolites could be due to the depletion of the intracellular ER-resident MR1 pool, or due to the retention of MR1 in the ER, as shown for the DB28 ligand ([Salio et al., 2020]). To investigate this, C1R.MR1 cells were treated for 16 h with 100 µM RF or RF catabolites, conditions that induce MR1 downregulation (Fig. 3 A). Cells were lysed, and treated with endoglycosidase (Endo) H, to distinguish molecules that remain within the ER from those that have trafficked to the cell surface ([McWilliam et al., 2016]), and then, MR1 levels were assessed by immunoblotting (Fig. 3 A).
C1R.MR1 cells were cultured with different RF catabolites for 16 h, at 37°C. Samples were then treated with or without Endo H for 1-h incubation at 37°C. Cells were lysed, and lysate protein concentration was quantified by BCA assay. Equal amounts of samples (40 µg total protein) were separated on SDS-PAGE gels before being transferred onto nitrocellulose membranes and incubated with primary (anti-MR1; clone 8G3) ([McWilliam et al., 2020]) then corresponding secondary antibody (IRDye 800CW anti-mouse IgG, Cat. No. 925-32210; LICORbio). The protein bands were visualized by the Li-Cor system.

MR1 on THP-1.MR1 cells = test system: T9, MR1 on THP-1.MR1 cells; experiment: competition with Ac-6-FP for MR1 upregulation, THP-1.MR1 cells; format: cell-based, human; conditions: 1–200 µM overnight, then 10 µM Ac-6-FP for 3 h
T9 construct: expressed in transfected cells; host or cells: THP-1 monocytic cells transduced with MR1

[9] = test system: T10, MR1^R9H on C1R.MR1^R9H cells; experiment: cell surface MR1^R9H by flow cytometry; format: cell-based, human
T10 construct: expressed in transfected cells; host or cells: C1R cells stably transduced with MR1^R9H
Excerpt: as §1
as §2, with “2022a]). C1R Ag-presenting B lymphocytes overexpressing MR1*01 (C1R.MR1), MR1^K43A mutant (C1R.MR1^K43A), MR1^R9H mutant (C1R.MR1^R9H), or HLA-A*02:01 (C1R-A2), in addition to the monocytic THP-1-MR1 cells, were used in this study.” for “2022a]).”

[10] = test system: T11, surface MR1*01 on C1R.MR1 cells; experiment: quantification of cell surface MR1 by flow cytometry, C1R.MR1 cells; format: cell-based, human; conditions: C1R.MR1 cells, 1–200 µM, 8F2F9 antibody
T11 construct: expressed in transfected cells; host or cells: C1R B lymphoblastoid cells transduced with MR1*01

IC50 (hMR1 protein) [µM]	Compound	total level of folded MR1 (intracellular staining with 8F2.F9) [1]	folding of the MR1-β2m cocomplex in solution [2]	MR1^K43A at the cell surface ([3]; 3 h)	Tm50 (half-maximum melting temperature), Mean ± SD (soluble WT MR1) [°C]	MR1 cell surface expression [4]	reactivity to 5-OP-RU (CD69) [5]	reactivity to RL-7-Me (CD69) [5]	MR1 surface expression [6]	MR1^K43A at the cell surface ([3]; 16 h)	block of CD69 upregulation and TNF production [7]	activation (CD69 expression), ligand alone [8]	activation (CD69 expression), ligand alone ([5]; SKW-3 AF-7 cocultured with C1R.MR1, no agonist)	effect on Ac-6-FP–induced cell surface upregulation of MR1 (MR1 on C1R.MR1 cells; then 10 µM Ac-6-FP for 3 h)	effect on 5-OP-RU–induced cell surface upregulation of MR1 (MR1 on C1R.MR1 cells; then 5-OP-RU for 3 h)	Endo H–resistant MR1 (MR1 in C1R.MR1 cells)	effect on Ac-6-FP–induced cell surface upregulation of MR1 (MR1 on THP-1.MR1 cells)	MR1^R9H surface level [9]	MR1 cell surface expression ([10]; 3 h)	MR1 cell surface expression ([10]; 16 h)
53.6	Cc1cc2nc3c(=O)[nH]c(=O)nc-3n(CC=O)c2cc1C [FMF, 10-formylmethylflavin]	increased the total level of folded MR1	facilitated the correct folding of the MR1-β2m cocomplex	–	–	–	–	–	–	–	–	–	–	–	–	–	–	–	–	–
182	Cc1cc2nc3c(=O)[nH]c(=O)nc-3n(C[C@H](O)[C@H](O)[C@H](O)CO)c2cc1C [RF, riboflavin]	–	did not sponsor refolding of MR1	–	–	–	not altered	activation was enhanced	–	MR1 upregulation continues	neither RF nor RF catabolites could block	not activated	not activated	did not modulate	did not modulate	Neither RF nor its catabolites induced any Endo H–resistant MR1	did not modulate	did not deviate from the background level	did not alter MR1 expression from the baseline	modestly upregulated MR1; also recorded: modest increase

Compound	IC50 (hMR1 protein) [µM]	total level of folded MR1 (intracellular staining with 8F2.F9) [1]	folding of the MR1-β2m cocomplex in solution [2]	MR1^K43A at the cell surface ([3]; 3 h)	Tm50 (half-maximum melting temperature), Mean ± SD (soluble WT MR1) [°C]	MR1 cell surface expression [4]	reactivity to 5-OP-RU (CD69) [5]	reactivity to RL-7-Me (CD69) [5]	MR1 surface expression [6]	MR1^K43A at the cell surface ([3]; 16 h)	block of CD69 upregulation and TNF production [7]	activation (CD69 expression), ligand alone [8]	activation (CD69 expression), ligand alone ([5]; SKW-3 AF-7 cocultured with C1R.MR1, no agonist)	effect on Ac-6-FP–induced cell surface upregulation of MR1 (MR1 on C1R.MR1 cells; then 10 µM Ac-6-FP for 3 h)	effect on 5-OP-RU–induced cell surface upregulation of MR1 (MR1 on C1R.MR1 cells; then 5-OP-RU for 3 h)	Endo H–resistant MR1 (MR1 in C1R.MR1 cells)	effect on Ac-6-FP–induced cell surface upregulation of MR1 (MR1 on THP-1.MR1 cells)	MR1^R9H surface level [9]	MR1 cell surface expression ([10]; 3 h)	MR1 cell surface expression ([10]; 16 h)
Cc1cc2nc3c(=O)[nH]c(=O)nc-3n(C)c2cc1C [Lumiflavin, lumiflavin]	22.8	–	facilitated the correct folding of the MR1-β2m cocomplex	increased MR1^K43A at the cell surface	52.02 ± 0.58	downregulated MR1 after 3 h	enhanced activation	activation was enhanced	reduced MR1 surface expression	–	–	–	–	–	–	–	–	–	–	–
